Data taken from patent publication US20230139328A1, “DOSAGE FORMS FOR IMPROVING ORGAN TRANSPLANTATION, GRAFT VERSUS HOST DISEASE AND STEM CELLS TRANSPLANTS” (Aphios Corporation, priority 2020, published 2023).
“Also recorded” adds a separate entry of the source.

Columns and labels:
[1] = tested on: PKC-ε siRNA nucleofected HUVEC; assay: LTB4 mediated neutrophil migration across PKC-ε siRNA nucleofected HUVEC; type: cell-based, human; conditions: 1 h pretreatment; PKC-ε knockdown
From the text: Because studies in FIG. 8 could not discriminate between PKC-δ and […] isoforms mediating the effect of Bryostatin-1, we knocked down individual isoforms using siRNA technology. In order to verify that we could knock down particular isoforms of PKC, specifically PKC-8 and PKC-ε isoforms in HUVEC, siRNA which selectively bind to and eliminate human PKC-8 and PKC-ε mRNAs were nucleofected into HUVEC prior to migration studies. […] HUVEC cells treated using these approaches were then subjected to chemotaxis studies with Bryostatin-1 to elucidate the mechanism of Bryostatin-1 mediated inhibition of LTB4 induced PMN migration.
Neutrophil Transendothelial Migration (TEM) Restoration Studies: HUVECs were pretreated with Go-6983 (1, 10, 100 nM), or Go-6976 (1, 10,100 nM) for 30 minutes, then spiked with 100 nM Bryostatin-1 for 1 hour. […] Migration was stopped by removing the inserts and migration was measured using the MPO assay.
Myeloperoxidase Assay: Neutrophil migration was measured using myeloperoxidase (MPO) analysis. […] The supernatant was removed, and MPO activity was measured using TMB/peroxide as chromogen. The reaction was stopped with sulfuric acid and absorbance was read at 450 nm using a microplate reader. […] Data was expressed as “% neutrophil migration”, which allowed cumulative statistical analysis to be done and account for unpreventable batch-to-batch variations. […]

[2] = tested on: neutrophil migration across confluent HMEC monolayers; assay: TNF-α induced neutrophil migration across HMEC monolayers; type: cell-based, human; conditions: HMECs; 24 h TNF-α 10 or 20 ng/ml; 100 nM, 1 h pretreatment
Experimental: FIG. 4 graphically depicts the effect of PMA on TNF-α induced neutrophil migration.
Turning now to FIG. 5, FIG. 5 graphically depicts the effect of Bryostatin-1 on TNF-α induced neutrophil migration.
Migration Assays: At confluency HMECs were treated for 1 h at 37° C. with Bryostatin-1 (10 nM, 100 nM) in MCDB-131 media or MCDB-131 media alone. Inserts were washed three times with Hank's Balanced Salt Solution (HBSS) (to eliminate drug effects on the neutrophils) and placed in a new plate containing either 500 μL 100 nM LTB4, or HBSS alone for control. 500 μL HBSS was then added to the top well and spiked with 500,000 neutrophils. For TNF-α experiments, HMECs were left in 20 ng/ml TNF-α in MCDB-131 for 24 h TNF-α was removed and HMECs washed three times. […] Migration was stopped by removing the inserts and migration was measured using the myeloperoxidase (MPO) assay.
Myeloperoxidase Assay: Neutrophil migration was measured using myeloperoxidase (MPO) analysis. […] The supernatant was removed, and MPO activity was measured using TMB/peroxide as chromogen. The reaction was stopped with sulfuric acid and absorbance was read at 450 nm using a microplate reader. […] Data was expressed as “% neutrophil migration”, which allowed cumulative statistical analysis to be done and account for unpreventable batch-to-batch variations.

T84 intestinal epithelia = conditions: cited from earlier work
[3] = tested on: neutrophil migration across HUVECs; assay: Time course of LTB4 induced neutrophil migration across HUVECs; type: cell-based, human; conditions: single 1 h 100 nM pretreatment, washed, tested at 0, 24, 48 h
Experimental: Time Course Assays: At confluency, HUVECs were treated for 1 h at 37° C. with Bryostatin-1 (10 nM, 100 nM) in EGM or EGM alone. Inserts were washed three times with HBSS (to reduce drug effects on the neutrophils) and migration assays were ran at t=0, 24, or 48 h. After time elapsed, HUVECs were placed in a new plate containing either 500 μL 100 nM LTB4 or HBSS alone for control. 500 μL HBSS was then added to the top well and spiked with 500,000 neutrophils. Neutrophils were allowed to migrate for 3 h at 37° C. Migration was stopped by removing the inserts and migration was measured using the MPO assay.
Myeloperoxidase Assay: Neutrophil migration was measured using myeloperoxidase (MPO) analysis. Cell culture inserts were first removed, and plates were spun at 1,500 RPM for 5 min. The supernatant was removed, and MPO activity was measured using TMB/peroxide as chromogen. The reaction was stopped with sulfuric acid and absorbance was read at 450 nm using a microplate reader. All experiments were performed n=6. Data was expressed as “% neutrophil migration”, which allowed cumulative statistical analysis to be done and account for unpreventable batch-to-batch variations.

[4] = tested on: neutrophil adhesion to the endothelial monolayer; assay: LTB4 induced neutrophil adhesion to the endothelial monolayer; type: cell-based, human; conditions: data not shown
Experimental: Turning now to FIG. 1, FIG. 1 graphically depicts neutrophil adhesion to and migration through human microvascular endothelial cell monolayers (HMECs) in a two-compartment system upon administration of an LTB4 gradient in the lower chamber over time. HMECs were plated on porous 8 μm (micron) transwell two-chamber inserts and allowed to reach confluency for migration assays. For the adhesion assay, HMECs were plated on 48-well plates. 100 nM LTB4 and 500,000 neutrophils were added to the upper compartment to initiate adhesion, while 500,000 neutrophils were added to the upper compartment and LTB4 to the lower compartment to initiate migration. Both neutrophil adhesion and migration were measured over 3 h and expressed as % change in adhesion and the fraction of migrated cells in chemoattractant stimulated experiments vs. controls which had no chemoattractant added. […]
Confluent HMEC monolayers were plated on 48-well plates for adhesion studies, transwells for migration studies, and pretreated with a variety of pharmacological inhibitors and activators for 1 hour. […] For adhesion assays, LTB4 was added along with 500,000 neutrophils and allowed to adhere for 1 h (time of max, adhesion as determined in FIG. 1). […] The data are shown as % change in migration and adhesion as assessed by MPO assay. All values are expressed as means+SE. […]

Structure (SMILES): CCC/C=C/C=C/C(=O)O[C@H]1/C(=C/C(=O)OC)C[C@H]2C[C@H]([C@@H](C)O)OC(=O)C[C@H](O)C[C@@H]3C[C@H](OC(C)=O)C(C)(C)[C@](O)(C[C@@H]4C/C(=C/C(=O)OC)C[C@H](/C=C/C(C)(C)[C@]1(O)O2)O4)O3 [Bryostatin-1]
- effect on LTB4 mediated neutrophil migration in PKC-ε siRNA nucleofected HUVEC [1]: did not restore LTB4 induced migration; also recorded: still suppresses migration
- effect on TNF-α induced neutrophil TEM (Type II migration) [2]: attenuated Type II migration; also recorded: totally attenuated
- barrier function and TNF-α induced barrier loss (T84 intestinal epithelia): enhances barrier function and inhibits barrier loss induced by TNF-α
- time after pretreatment for which reduction of LTB4 induced migration is maintained, HUVECs [3]: 48 h
- effect on LTB4 induced adhesion to the endothelial monolayer [4]: Neither PMA, nor Bryostatin-1 reduced LTB4 induced adhesion

Structure (SMILES): CCCCCCCCCCCCCC(=O)O[C@@H]1[C@@H](C)[C@@]2(O)[C@@H](C=C(CO)C[C@]3(O)C(=O)C(C)=C[C@@H]23)[C@@H]2C(C)(C)[C@]12OC(C)=O [PMA, phorbol myristate acetate]
- effect on LTB4 mediated neutrophil migration in PKC-ε siRNA nucleofected HUVEC [1]: did not restore LTB4 induced migration
- effect on TNF-α induced neutrophil TEM (Type II migration) [2]: attenuated Type II migration; also recorded: totally attenuated
- time after pretreatment for which reduction of LTB4 induced migration is maintained, HUVECs [3]: up to 48 h
- effect on LTB4 induced adhesion to the endothelial monolayer [4]: Neither PMA, nor Bryostatin-1 reduced LTB4 induced adhesion
